Experimental data from PubChem BioAssay AID256 (DTP/NCI, 2004).
Where “and” joins values, the source holds several entries; their conditions need not be identical. Equal entries are not always repeated. Toxic doses and inconclusive results are not listed. How the source made its calls: active means survival T/C of 150% or more; inactive means T/C below 125% in these data.

Tested on: CD2F1 mice, L1210 leukemia ip, survival T/C
Experiment: NCI In Vivo Anticancer Drug Screen. Data for tumor model L1210 Leukemia (intraperitoneal) in CD2F1 (CDF1) mice
Settings: endpoint: mean survival time, higher = longer survival
In short: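 Antitumor effect is scored in animals hosting a serially transplanted tumor. Values compare compound-dosed animals against vehicle-only controls as a simple quotient.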

[1] = dose: 100.0 mg/kg/injection, schedule: Q04DX003 (ip), vehicle: saline with Tween-80
[2] = dose: 200.0 mg/kg/injection, schedule: Q04DX003 (ip), vehicle: saline with Tween-80
[3] = dose: 400.0 mg/kg/injection, schedule: Q04DX003 (ip), vehicle: saline with Tween-80
[4] = dose: 100.0 mg/kg/injection, schedule: Q01DX001 (ip), vehicle: saline with Tween-80
[5] = dose: 100.0 mg/kg/injection, schedule: Q04DX003 (ip), vehicle: Klucel (hydroxypropylcellulose) (HPC)
[6] = dose: 200.0 mg/kg/injection, schedule: Q01DX001 (ip), vehicle: saline with Tween-80
[7] = dose: 200.0 mg/kg/injection, schedule: Q04DX003 (ip), vehicle: Klucel (hydroxypropylcellulose) (HPC)
[8] = dose: 400.0 mg/kg/injection, schedule: Q01DX001 (ip), vehicle: saline with Tween-80
[9] = dose: 400.0 mg/kg/injection, schedule: Q04DX003 (ip), vehicle: Klucel (hydroxypropylcellulose) (HPC)
[10] = dose: 50.0 mg/kg/injection, schedule: Q01DX009 (ip), vehicle: saline with Tween-80
[11] = dose: 100.0 mg/kg/injection, schedule: Q01DX009 (ip), vehicle: saline with Tween-80
[12] = dose: 200.0 mg/kg/injection, schedule: Q01DX009 (ip), vehicle: saline with Tween-80
[13] = dose: 400.0 mg/kg/injection, schedule: Q01DX009 (ip), vehicle: saline with Tween-80
[14] = dose: 12.5 mg/kg/injection, schedule: Q01DX009 (ip), vehicle: Klucel (hydroxypropylcellulose) (HPC)

Measured: T/C

CNC(=O)OCc1c(COC(=O)NC)c(-c2ccccc2)n(C)c1-c1ccccc1
inactive: dose: 3.12 mg/kg/injection, schedule: Q01DX009 (ip), vehicle: distilled water + Tween-80 111 % of control | dose: 6.25 mg/kg/injection, schedule: Q01DX009 (ip), vehicle: distilled water + Tween-80 111 % of control | dose: 50.0 mg/kg/injection, schedule: Q01DX009 (ip), vehicle: distilled water + Tween-80 111 % of control

COc1ccc(N2C(=O)CSC2=S)cc1
inactive: [1] 102 % of control | [2] 96 % of control | [3] 102 % of control

C(=N\Nc1ccccc1)/c1ccccc1
inactive: [4] 107 % of control | [5] 106 % of control | [6] 94 % of control | [7] 98 % of control | [8] 100 % of control | [9] 96 % of control

N#Cc1cccc[n+]1Cc1ccc([N+](=O)[O-])cc1
inactive: dose: 25.0 mg/kg/injection, schedule: Q01DX009 (ip), vehicle: saline with Tween-80 108 % of control | [10] 101 % of control

Cc1cccc(Cl)c1C#N
inactive: [4] 104 % of control | [11] 94 % of control | [1] 107 % of control | [6] 106 % of control | [12] 100 % of control | [2] 101 % of control | [8] 106 % of control | [13] 90 % of control | [3] 100 % of control

O=C([CH-]C(=O)C(F)(F)F)c1ccccc1.O=C([CH-]C(=O)C(F)(F)F)c1ccccc1.O=C([CH-]C(=O)C(F)(F)F)c1ccccc1.O=C([CH-]C(=O)C(F)(F)F)c1ccccc1.[Eu+3].c1ccncc1
inactive: [14] 95 % of control and 101 % of control | dose: 25.0 mg/kg/injection, schedule: Q01DX009 (ip), vehicle: Klucel (hydroxypropylcellulose) (HPC) 101 % of control | dose: 50.0 mg/kg/injection, schedule: Q01DX009 (ip), vehicle: Klucel (hydroxypropylcellulose) (HPC) 89 % of control and 106 % of control | dose: 100.0 mg/kg/injection, schedule: Q01DX009 (ip), vehicle: Klucel (hydroxypropylcellulose) (HPC) 97 % of control and 109 % of control | dose: 200.0 mg/kg/injection, schedule: Q01DX009 (ip), vehicle: Klucel (hydroxypropylcellulose) (HPC) 95 % of control and 100 % of control | dose: 400.0 mg/kg/injection, schedule: Q01DX009 (ip), vehicle: Klucel (hydroxypropylcellulose) (HPC) 97 % of control and 100 % of control

C#CC1(OC(=O)Nc2ccc3c(c2)OCO3)CCCCC1
inactive: [4] 92 % of control | [6] 86 % of control | [8] 95 % of control

C=CCCCCCCCCC(=O)Nc1cc2c3c(c1)CCCN3CCC2
inactive: [10] 97 % of control | [11] 101 % of control | [1] 93 % of control

CC(=O)Nc1ncc2ccccc2c1-c1ccc(N(CCCl)CCCl)cc1
active: dose: 400.0 mg/kg/injection, schedule: Q04DX003 (ip), vehicle: DMSO 150 % of control
inactive: dose: 25.0 mg/kg/injection, schedule: Q04DX003 (ip), vehicle: DMSO 105 % of control | dose: 50.0 mg/kg/injection, schedule: Q04DX003 (ip), vehicle: DMSO 94 % of control | dose: 50.0 mg/kg/injection, schedule: Q04DX003 (ip), vehicle: Klucel (hydroxypropylcellulose) (HPC) 95 % of control | dose: 100.0 mg/kg/injection, schedule: Q04DX003 (ip), vehicle: DMSO 111 % of control | [5] 104 % of control | dose: 100.0 mg/kg/injection, schedule: Q04DX003 (ip), vehicle: saline + alcohol 92 % of control | [7] 101 % of control | dose: 200.0 mg/kg/injection, schedule: Q04DX003 (ip), vehicle: saline + alcohol 101 % of control | [9] 104 % of control | dose: 400.0 mg/kg/injection, schedule: Q04DX003 (ip), vehicle: saline + alcohol 97 % of control

CC[N](CC)[Ge]([CH2]C)[CH2]C.CC[N](CC)[Ge]([CH2]C)[CH2]C
inactive: dose: 3.12 mg/kg/injection, schedule: Q01DX009 (ip), vehicle: saline 98 % of control | dose: 3.12 mg/kg/injection, schedule: Q01DX009 (ip), vehicle: suspension in saline 98 % of control | dose: 6.25 mg/kg/injection, schedule: Q01DX009 (ip), vehicle: saline 98 % of control | dose: 6.25 mg/kg/injection, schedule: Q01DX009 (ip), vehicle: suspension in saline 114 % of control | dose: 12.5 mg/kg/injection, schedule: Q01DX009 (ip), vehicle: saline 98 % of control | dose: 12.5 mg/kg/injection, schedule: Q01DX009 (ip), vehicle: suspension in saline 106 % of control | dose: 25.0 mg/kg/injection, schedule: Q01DX009 (ip), vehicle: saline 101 % of control | dose: 25.0 mg/kg/injection, schedule: Q01DX009 (ip), vehicle: suspension in saline 97 % of control | dose: 50.0 mg/kg/injection, schedule: Q01DX009 (ip), vehicle: saline 110 % of control | dose: 50.0 mg/kg/injection, schedule: Q01DX009 (ip), vehicle: suspension in saline 101 % of control

O=C(O)/C=C/C(=O)Nc1ccccc1[N+](=O)[O-]
inactive: [10] 102 % of control | [11] 104 % of control | [12] 94 % of control

CCOC(=O)Nc1cc(NCCCCc2ccccc2)c([N+](=O)[O-])c(N)n1
inactive: dose: 12.5 mg/kg/injection, schedule: Q01DX001 (ip), vehicle: Klucel (hydroxypropylcellulose) (HPC) 97 % of control | dose: 25.0 mg/kg/injection, schedule: Q01DX001 (ip), vehicle: Klucel (hydroxypropylcellulose) (HPC) 103 % of control | dose: 50.0 mg/kg/injection, schedule: Q01DX001 (ip), vehicle: Klucel (hydroxypropylcellulose) (HPC) 89 % of control

CCCCCC(C)(C#N)CCCCC
inactive: [11] 105 % of control | [12] 103 % of control

Cn1nnc(-c2nn[nH]n2)n1
inactive: [4] 105 % of control | [1] 106 % of control | [6] 104 % of control | [2] 98 % of control | [8] 94 % of control | [3] 97 % of control

CNCc1ccc2c(c1)OCO2
inactive: dose: 75.0 mg/kg/injection, schedule: Q01DX001 (ip), vehicle: saline 100 % of control | dose: 150.0 mg/kg/injection, schedule: Q01DX001 (ip), vehicle: saline 103 % of control

O=C1CCc2c(Br)cccc21
inactive: [11] 106 % of control | [1] 114 % of control | [12] 101 % of control | [2] 100 % of control | [13] 110 % of control | [3] 101 % of control

Nc1cccnc1
inactive: dose: 5.0 mg/kg/injection, schedule: Q04DX003 (ip), vehicle: saline 92 % of control | dose: 10.0 mg/kg/injection, schedule: Q04DX003 (ip), vehicle: saline 94 % of control | dose: 20.0 mg/kg/injection, schedule: Q04DX003 (ip), vehicle: saline 94 % of control

CC1(C)CN(c2ccccc2)N(CN2CCOCC2)C1=O
inactive: [14] 89 % of control

CC(=O)NC(Cc1ccccc1)c1ccccc1 (stereo not drawn)
inactive: [4] 112 % of control | [6] 105 % of control | [8] 86 % of control

Oc1c(Br)cc(Br)cc1/C=N/c1nc(-c2ccccc2)cs1.Oc1c(Br)cc(Br)cc1/C=N/c1nc(-c2ccccc2)cs1.[Co]
inactive: dose: 25.0 mg/kg/injection, schedule: Q01DX001 (ip), vehicle: saline 100 % of control | dose: 50.0 mg/kg/injection, schedule: Q01DX001 (ip), vehicle: saline 100 % of control | dose: 100.0 mg/kg/injection, schedule: Q01DX001 (ip), vehicle: saline 87 % of control
